Assay results taken from PubChem BioAssay (NCI).
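Interpolation was linear, between the two tested concentrations surrounding the appropriate level; five concentrations were tested over 48 hours in 96-well plates. TGI denotes the concentration required for complete inhibition of growth.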

How the values were obtained:
Experiment in all cases: NCI-60 cell line screen, 48 h
[1] = system: 786-0 renal
[2] = system: A549 NSCLC
[3] = system: ACHN renal
[4] = system: CCRF-CEM leukemia
[5] = system: COLO 205 colon
[6] = system: DLD-1 colon
[7] = system: DMS 114 small cell lung
[8] = system: DMS 273 small cell lung
[9] = system: EKVX NSCLC
[10] = system: HCC-2998 colon
[11] = system: HCT-116 colon
[12] = system: HCT-15 colon
[13] = system: HL-60(TB) leukemia
[14] = system: HOP-18 NSCLC
[15] = system: HOP-92 NSCLC
[16] = system: HT29 colon
[17] = system: IGROV1 ovarian
[18] = system: K-562 leukemia
[19] = system: KM12 colon
[20] = system: KM20L2 colon
[21] = system: LOX IMVI melanoma
[22] = system: LXFL 529 NSCLC
[23] = system: M14 melanoma
[24] = system: M19-MEL melanoma
[25] = system: MALME-3M melanoma
[26] = system: MOLT-4 leukemia
[27] = system: NCI-H226 lung
[28] = system: NCI-H23 lung
[29] = system: NCI-H460 lung
[30] = system: NCI-H522 lung
[31] = system: OVCAR-3 ovarian
[32] = system: OVCAR-4 ovarian
[33] = system: OVCAR-5 ovarian
[34] = system: OVCAR-8 ovarian
[35] = system: RPMI-8226 leukemia
[36] = system: RXF 393 renal
[37] = system: SF-268 CNS
[38] = system: SF-295 CNS
[39] = system: SF-539 CNS
[40] = system: SK-MEL-2 melanoma
[41] = system: SK-MEL-28 melanoma
[42] = system: SK-MEL-5 melanoma
[43] = system: SK-OV-3 ovarian
[44] = system: SN12C renal
[45] = system: SNB-19 CNS
[46] = system: SNB-75 CNS
[47] = system: SNB-78 CNS
[48] = system: SR leukemia
[49] = system: SW-620 colon
[50] = system: TK-10 renal
[51] = system: U251 CNS
[52] = system: UACC-257 melanoma
[53] = system: UACC-62 melanoma
[54] = system: UO-31 renal
[55] = system: XF 498 CNS
[56] = system: A498 renal
[57] = system: CAKI-1 renal
[58] = system: HOP-62 NSCLC

`O=C1C(=Cc2cccs2)C(=O)N(CCc2ccccc2)S(=O)(=O)N1CCc1ccccc1` was tested, and the TGI [1] was > 50 µM, the TGI [2] was > 50 µM and the TGI [3] was > 50 µM. The TGI [4] was > 50 µM, the TGI [5] was > 50 µM and the TGI [6] was > 50 µM. For the same molecule, the TGI [7] was 22.2 µM, the TGI [8] was > 50 µM and the TGI [9] was > 50 µM. The TGI [10] was > 50 µM, the TGI [11] was 30.4 µM and the TGI [12] was > 50 µM. The TGI [13] was 38.4 µM, the TGI [14] was > 50 µM and the TGI [15] was > 50 µM. The TGI [16] was > 50 µM, the TGI [17] was 16.5 µM and the TGI [18] was > 50 µM. The TGI [19] was > 50 µM, the TGI [20] was > 50 µM and the TGI [21] was > 50 µM. For the same molecule, the TGI [22] was > 50 µM, the TGI [23] was > 50 µM and the TGI [24] was > 50 µM. For the same molecule, the TGI [25] was > 50 µM, the TGI [26] was > 50 µM and the TGI [27] was > 50 µM. For the same molecule, the TGI [28] was > 50 µM, the TGI [29] was > 50 µM and the TGI [30] was > 50 µM. For the same molecule, the TGI [31] was > 50 µM, the TGI [32] was > 50 µM and the TGI [33] was > 50 µM. The TGI [34] was > 50 µM, the TGI [35] was > 50 µM and the TGI [36] was > 50 µM. For the same molecule, the TGI [37] was > 50 µM, the TGI [38] was > 50 µM and the TGI [39] was > 50 µM. The TGI [40] was > 50 µM, the TGI [41] was > 50 µM and the TGI [42] was > 50 µM. The TGI [43] was > 50 µM, the TGI [44] was > 50 µM and the TGI [45] was > 50 µM. The TGI [46] was > 50 µM, the TGI [47] was > 50 µM and the TGI [48] was > 50 µM. For the same molecule, the TGI [49] was > 50 µM, the TGI [50] was > 50 µM and the TGI [51] was 35.2 µM. The TGI [52] was > 50 µM, the TGI [53] was > 50 µM and the TGI [54] was > 50 µM. For the same molecule, the TGI [55] was > 50 µM.

For `O=C(/C=C/c1ccc(Br)cc1)c1ccc(NCc2nc3ccccc3[nH]2)cc1`, the TGI [1] was > 56.2 µM, the TGI [56] was > 87.1 µM and the TGI [2] was > 54.7 µM. For the same molecule, the TGI [3] was 81.2 µM, the TGI [57] was > 57.4 µM and the TGI [4] was > 40.1 µM. The TGI [5] was 13 µM, the TGI [6] was > 67.4 µM and the TGI [7] was > 37.5 µM. The TGI [8] was > 54.6 µM, the TGI [9] was > 100 µM and the TGI [10] was 88.5 µM. The TGI [11] was > 49.1 µM, the TGI [12] was 17.3 µM and the TGI [13] was > 22.9 µM. For the same molecule, the TGI [14] was > 100 µM, the TGI [58] was > 61.2 µM and the TGI [15] was 28.3 µM. For the same molecule, the TGI [16] was 27.4 µM, the TGI [17] was > 76.3 µM and the TGI [18] was > 37.3 µM. For the same molecule, the TGI [19] was > 100 µM, the TGI [20] was > 100 µM and the TGI [21] was 6.91 µM. The TGI [22] was > 46.2 µM, the TGI [23] was > 100 µM and the TGI [24] was > 100 µM. For the same molecule, the TGI [25] was > 100 µM, the TGI [26] was 39.9 µM and the TGI [27] was 54.3 µM. For the same molecule, the TGI [28] was > 42.5 µM, the TGI [29] was > 42.2 µM and the TGI [30] was 19.4 µM. The TGI [31] was > 100 µM, the TGI [32] was > 62.6 µM and the TGI [33] was > 100 µM. The TGI [34] was > 52.6 µM, the TGI [36] was 24.4 µM and the TGI [37] was 33 µM. The TGI [38] was > 46.3 µM, the TGI [39] was 24.3 µM and the TGI [40] was > 82.1 µM. The TGI [41] was > 100 µM, the TGI [42] was > 46.8 µM and the TGI [43] was > 69.3 µM. For the same molecule, the TGI [44] was 66.5 µM, the TGI [45] was > 53.5 µM and the TGI [46] was 20.6 µM. For the same molecule, the TGI [47] was 16.6 µM, the TGI [48] was 84.6 µM and the TGI [49] was 21.2 µM. For the same molecule, the TGI [50] was > 55.3 µM, the TGI [51] was > 36.8 µM and the TGI [52] was > 63.4 µM. For the same molecule, the TGI [53] was > 76.2 µM, the TGI [54] was 31.2 µM and the TGI [55] was 49.3 µM.
